The nature of this series: A: acetonitrile + 0.1% formic acid + 10 mM ammonium formate; B: 5% water + 95% acetonitrile + 0.1% formic acid + 10 mM ammonium formate; gradient (min/%B) 0/10 2/10 22/100 27/100 27.1/10. The following applies: stereoisomer not certain.

SMILES strings stand for the structures.

On to `O=C(O)CCCCCCC(=O)NCC(=O)O` [Suberyl Glycine], for which the LC retention time was 5.46 min.

On to `CC(=O)NCCCCCN` [N-(5-Aminopentyl)acetamide], for which the LC retention time turned out to be 4.61 min.

With `COC(=O)Cc1ccc(C(C)(C)C)cc1` [Methyl p-tert-butylphenylacetate], the LC retention time is 0.415 min.

As to `NCC(=O)N[C@@H](Cc1ccc(O)cc1)C(=O)O` [Glycyl-L-tyrosine], the LC retention time was found to be 5.97 min.

For the molecule `CNC(=C[N+](=O)[O-])NCCSCc1ccc(CN(C)C)o1` [Ranitidine], the LC retention time amounted to 3.12 min.

As to `NCCS(=O)O` [Hypotaurine], the LC retention time came out at 6.07 min.

`O=C1CCc2ccc(OCCCCN3CCN(c4cccc(Cl)c4Cl)CC3)cc2N1` [Aripiprazole]: the LC retention time was 1.25 min.

For the molecule `CN(C)CCOc1ccc(C(=C(CCCl)c2ccccc2)c2ccccc2)cc1` [Toremifene], the LC retention time was 0.772 min.

As for `CC(C=CC1=C(C)CCCC1(C)C)=CC=CC(C)=CC(=O)O` [Retinoic Acid], the LC retention time was 0.433 min.

Take `NC(CCS)C(=O)O` (racemic) [DL-Homocysteine]: the LC retention time came out at 5.69 min.

With `NC(=O)c1ccccc1O` [Salicylamide], the LC retention time was determined as 0.448 min.

On to `N[C@H]1C(O)O[C@H](COP(=O)(O)O)[C@@H](O)[C@@H]1O` (stereo partly drawn) [D-Glucosamine 6-phosphate], for which the LC retention time was 8.21 min.

Turning to `CCCCC(=O)N(Cc1ccc(-c2ccccc2-c2nn[nH]n2)cc1)C(C(=O)O)C(C)C` (centres undefined) [Valsartan], the LC retention time worked out at 0.733 min.

For `CN(C)Cc1c[nH]c2ccccc12` [Gramine], the LC retention time came out at 1.61 min.

With `COc1cc(/C=C/C(=O)O)ccc1O` [Ferulic acid], the LC retention time is 0.564 min.

On to `N[C@@H](Cc1ccc(O)cc1)C(=O)O` [L-Tyrosine], for which the LC retention time was found to be 5.62 min.

With `COc1ccc(CCN(C)CCCC(C#N)(c2ccc(OC)c(OC)c2)C(C)C)cc1OC` (racemic) [(+/-)-Verapamil], the LC retention time was found to be 0.815 min.

In the case of `NCC(O)CCC(N)C(=O)O` (racemic) [DL-5-Hydroxylysine], the LC retention time was determined as 7.93 min.

Turning to `CC(C)(C)NCC(O)c1ccc(O)c(CO)c1` (centres undefined) [Salbutamol], the LC retention time was 3.16 min.

As for `O=C(O)c1ccc2ccccc2n1` [Quinaldic acid], the LC retention time was 1.48 min.

In the case of `C=C1CCC2CC1C2(C)C` (stereo not drawn) [beta-Pinene], the LC retention time was determined as 0.452 min.

Turning to `N[C@@H](Cc1cc(I)c(Oc2ccc(O)cc2)c(I)c1)C(=O)O` [3,5-Diiodo-L-Thyronine], the LC retention time came to 3.63 min.

As to `COc1ccc2[nH]cc(CC(N)C(=O)O)c2c1` (racemic) [5-Methoxy-DL-tryptophan], the LC retention time was 4.49 min.

Take `Nc1nc2c(ncn2CCC(CO)CO)c(=O)[nH]1` [Penciclovir]: the LC retention time turned out to be 4.51 min.

Regarding `NCCc1ccc(O)c(O)c1` [Dopamine], the LC retention time was 4.22 min.

Take `CN(CC(=O)O)C(=N)N` [Creatine]: the LC retention time worked out at 6.15 min.

Take `CCN(CC)CCNC(=O)c1ccc(N)cc1` [Procainamide]: the LC retention time worked out at 2.3 min.

For `COc1ccc(C2Sc3ccccc3N(CCN(C)C)C(=O)C2OC(C)=O)cc1` (centres undefined) [Diltiazem], the LC retention time amounted to 1.04 min.

For `CCOC(=O)C1=C(COCCN)NC(C)=C(C(=O)OC)C1c1ccccc1Cl` (centres undefined) [Amlodipine], the LC retention time was determined as 2.02 min.

Consider `O=C(O)/C=C/c1ccccc1` [trans-Cinnamic acid], for which the LC retention time turned out to be 0.485 min.

`O=c1[nH]cnc2[nH]ncc12` [Allopurinol]: the LC retention time was determined as 0.996 min.

Consider `NC(=O)CC[C@H](N)C(=O)O` [L-Glutamine], for which the LC retention time came to 6.54 min.

On to `O=c1ccc2ccccc2o1` [Coumarin], for which the LC retention time was 0.431 min.

As for `O=c1cc(-c2ccccc2)oc2cc(O)cc(O)c12` [Chrysin], the LC retention time worked out at 0.434 min.

With `O=C(O)CCc1c[nH]c2ccccc12` [3-Indolepropionic acid], the LC retention time turned out to be 0.467 min.

In the case of `CC(=O)NC(CCC(N)=O)C(=O)O` [N-alpha-Acetyl-L-glutamine], the LC retention time turned out to be 5.85 min.

For `Cc1ccc(S(=O)(=O)NC(=O)NN2CC3CCCC3C2)cc1` (centres undefined) [Gliclazide], the LC retention time came to 0.423 min.

On to `Nc1ncnc2c1ncn2C1OC(COP(=O)(O)OP(=O)(O)O)C(O)C1O` (centres undefined) [Adenosine 5'-diphosphate], for which the LC retention time is 9.46 min.

In the case of `CC(=O)N[C@@H](Cc1ccc(O)cc1)C(=O)O` [N-Acetyl-L-tyrosine], the LC retention time stood at 2.85 min.

`Cc1ncc(CO)c(CN)c1O` [Pyridoxamine]: the LC retention time came out at 6.5 min.

For the molecule `NC(Cc1cc(I)c(Oc2ccc(O)c(I)c2)c(I)c1)C(=O)O` (stereo not drawn) [3,3',5-Triiodo-l-thyronine], the LC retention time amounted to 3.5 min.

As for `CC(CN)C(=O)O` (centres undefined) [3-Aminoisobutanoic acid], the LC retention time was determined as 5.88 min.

`O=C(O)CNC(=O)c1ccc(O)cc1` [2-[(4-Hydroxyphenyl)formamido]acetic acid]: the LC retention time was found to be 3.64 min.

Regarding `CCN1CCCC1CNC(=O)c1cc(S(N)(=O)=O)ccc1OC` (racemic) [(+/-)-Sulpiride], the LC retention time is 2.67 min.

With `CC1=CCC2CC1C2(C)C` (single isomer, unassigned; (-)) [(-)-alpha-Pinene], the LC retention time was 0.438 min.

For the molecule `CC(=O)NCCCNCCCCNCCCN` [N1-Acetylspermine], the LC retention time was found to be 8.5 min.

On to `Cc1ncc(C[n+]2csc(CCOP(=O)([O-])O)c2C)c(N)n1` [Thiamine monophosphate], for which the LC retention time came out at 8.44 min.

`CC(=O)Nc1ccc(O)cc1` [4-Acetamidophenol]: the LC retention time was determined as 0.477 min.

With `COC(=O)c1cccnc1` [Methyl nicotinate], the LC retention time was determined as 0.625 min.

For the molecule `NCCCC[C@H](N)C(=O)O` [L-Lysine], the LC retention time came out at 7.67 min.

Take `O=c1ccn(C2OC(COP(=O)(O)O)C(O)C2O)c(=O)[nH]1` (centres undefined) [Uridine-5'-phosphoric acid]: the LC retention time was found to be 6.86 min.

With `COC(=O)C(Cc1ccccc1)NC(=O)C(N)CC(=O)O` (centres undefined) [Aspartame], the LC retention time came out at 4 min.

For the molecule `N[C@@H](CS(=O)(=O)O)C(=O)O` [L-Cysteic acid], the LC retention time is 6.79 min.

In the case of `O=C(c1ccccc1)c1ccc2n1CCC2C(=O)O` (centres undefined) [Ketorolac], the LC retention time was found to be 0.567 min.

`CN1C(C(=O)Nc2ccccn2)=C(O)c2ccccc2S1(=O)=O` [Piroxicam]: the LC retention time amounted to 0.44 min.

Turning to `CCC1=C(C)CN(C(=O)NCCc2ccc(S(=O)(=O)NC(=O)NC3CCC(C)CC3)cc2)C1=O` (centres undefined) [Glimepiride], the LC retention time was found to be 0.44 min.

Consider `O=C/C=C/c1ccccc1` [trans-Cinnamaldehyde], for which the LC retention time amounted to 0.43 min.

As for `CC(=O)NC(Cc1c[nH]c2ccccc12)C(=O)O` (racemic) [N-Acetyl-DL-Tryptophan], the LC retention time was determined as 1.32 min.

As to `CCc1occc(=O)c1O` [2-Ethyl-3-hydroxy-4H-pyran-4-one], the LC retention time came to 0.586 min.

As to `O=C(CO)[C@@H](O)[C@H](O)[C@H](O)COP(=O)(O)O` [D-Fructose-6-phosphate], the LC retention time was determined as 7.36 min.

Regarding `O=C(O)CCCCCC(=O)O` [Pimelic acid], the LC retention time is 0.909 min.

For the molecule `NC(COP(=O)(O)O)C(=O)O` (centres undefined) [Phosphoserine], the LC retention time amounted to 7.9 min.

Regarding `NCCCNCCCCNCCCN` [Spermine], the LC retention time amounted to 9.6 min.

In the case of `CSCC[C@H](N)C(=O)O` [L-Methionine], the LC retention time was found to be 5.97 min.

Take `N[C@@H](CO)C(=O)O` [L-Serine]: the LC retention time was 6.56 min.

With `CCC[C@H](N)C(=O)O` [L-Norvaline], the LC retention time was 5.65 min.

In the case of `CSc1ccc2c(c1)N(CCC1CCCCN1C)c1ccccc1S2` (centres undefined) [Thioridazine], the LC retention time amounted to 0.953 min.

On to `O=C1CCNC(=O)N1` [Dihydrouracil], for which the LC retention time was 0.746 min.

For the molecule `O=C(O)CNC(=O)c1ccccc1O` [2-Hydroxy Hippuric Acid], the LC retention time was 1.14 min.

Turning to `O=C1CC[C@@H](C(=O)O)N1` [L-Pyroglutamic acid], the LC retention time was 6.81 min.

Consider `CC(C)C[C@H](N)C(=O)O` [L-Leucine], for which the LC retention time was 5.01 min.

Turning to `O=C(C=Cc1ccccc1)OCc1ccccc1` [Benzyl cinnamate], the LC retention time is 0.413 min.

For `Cc1cc2nc3c(=O)[nH]c(=O)nc-3n(CC(O)C(O)C(O)COP(=O)(O)O)c2cc1C` (centres undefined) [Riboflavin 5'-Monophosphate], the LC retention time stood at 6.38 min.

For `Cn1cnc2c1c(=O)[nH]c(=O)n2C` [Theobromine], the LC retention time worked out at 0.687 min.

In the case of `Cc1cc2nc[nH]c2cc1C` [5,6-Dimethylbenzimidazole], the LC retention time was 0.733 min.

Turning to `O=C(O)C/C=C/CC(=O)O` [trans-2-Butene-1,4-dicarboxylic Acid], the LC retention time was 5.56 min.

Consider `CC(=O)CCC(=O)O` [Levulinic acid], for which the LC retention time turned out to be 0.421 min.

Regarding `Cc1cnc(NC(=O)C2=C(O)c3ccccc3S(=O)(=O)N2C)s1` [Meloxicam], the LC retention time was determined as 0.416 min.

In the case of `CC(CCC(=O)NCCS(=O)(=O)O)C1CCC2C3C(O)CC4CC(O)CCC4(C)C3CCC12C` (centres undefined) [Tauroursodeoxycholic acid], the LC retention time was 2.7 min.

As for `O=Cc1ccc(O)c(O)c1` [3,4-Dihydroxybenzaldehyde], the LC retention time was found to be 0.571 min.

With `CCCCCC(=O)OCC(COC(=O)CCCCC)OC(=O)CCCCC` [Glycerol Trihexanoate], the LC retention time was determined as 0.406 min.

Consider `N[C@H](CO)Cc1cnc[nH]1` [L-Histidinol], for which the LC retention time came out at 7.05 min.

On to `O=C(O)COCCN1CCN(C(c2ccccc2)c2ccc(Cl)cc2)CC1` (centres undefined) [Cetirizine], for which the LC retention time was found to be 1.33 min.

As for `OCC1OC(OC2(CO)OC(CO)C(O)C2O)C(O)C(O)C1O` (centres undefined) [Sucrose], the LC retention time was 6.27 min.

These data come from the RepoRT retention time repository.
